Source: patent EP4741420A1, “PHARMACEUTICAL COMPOSITION FOR PREVENTING OR TREATING OBESITY COMPRISING GLP ANALOGUE AS ACTIVE INGREDIENT” (priority 2023, dated 2025)
Peptide text beside a SMILES is read from it.

What was measured:
GLP-1R = GLP-1R (Homo sapiens, UniProt P43220); assay: GLP-1 activation: cell-based cAMP assay in GLP-1R/CHO cells
[1] = tested on: diet-induced obesity (DIO) mouse model; assay: DIO mouse model QD: liver weight and steatosis score, H&E (Example 8-2); type: in vivo, mice; details: QD (once daily), 45 nmol/kg/dose
Excerpt: To examine liver weight and steatosis, the liver weight elevated by obesity induction and the degree of steatosis after liver H&E staining were scored from grades 0 to 3 to compare the drug's hepatic efficacy. First, after the test was completed, the animal's liver was excised on the day of necropsy to confirm the liver efficacy of the drug. After measuring the weight of the excised liver, the intermediate lobes were frozen in liquid nitrogen for the subsequent measurement of triglycerides. The remaining portion of the liver was fixed in 10% neutral buffered formalin and subjected to histopathological examination.
For H&E analysis, the liver tissue fixed in the buffered formalin was put into an automatic tissue processor, embedded in paraffin, and then prepared into a paraffin block. Subsequently, the paraffin block was prepared into a tissue section, which was stained with hematoxylin & eosin (H&E). The stained tissue slide was observed using an optical microscope (BX61, Olympus, Japan) and photographed (DP80, Olympus, Japan).
Histopathological quantification of liver tissue was performed by scoring the degree of steatosis on H&E-stained slides from grades 0 to 3. The contents corresponding to each scoring grade are as follows.

[2] = Mouse PK after single subcutaneous administration, LC-MS/MS of plasma; type: in vivo, mice; details: male, C57BL/6N, mouse, in vivo, sc
Outline: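 Single subcutaneous dorsal dose of 0.2 mg/5 mL/kg to mice (12 per group). Plasma quantified by LC-MS/MS; parameters from non-compartmental analysis.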

C57BL/6 DIO mice = assay: Diet-induced obesity mouse model: blood/serum biochemical tests (Example 3); type: in vivo; details: after 4 weeks, 0.20 mg/kg/dose (dose from Table 3)
Protocol: Here, the body weight and food intake were measured daily.
In addition, after the experiment was completed, blood and serum samples were obtained from each mouse model, and biochemical tests were performed for blood glucose, total cholesterol, high-density lipoprotein (HDL), low-density lipoprotein (LDL), and triglycerides.

Chain of GLP-1R (P43220 24-463): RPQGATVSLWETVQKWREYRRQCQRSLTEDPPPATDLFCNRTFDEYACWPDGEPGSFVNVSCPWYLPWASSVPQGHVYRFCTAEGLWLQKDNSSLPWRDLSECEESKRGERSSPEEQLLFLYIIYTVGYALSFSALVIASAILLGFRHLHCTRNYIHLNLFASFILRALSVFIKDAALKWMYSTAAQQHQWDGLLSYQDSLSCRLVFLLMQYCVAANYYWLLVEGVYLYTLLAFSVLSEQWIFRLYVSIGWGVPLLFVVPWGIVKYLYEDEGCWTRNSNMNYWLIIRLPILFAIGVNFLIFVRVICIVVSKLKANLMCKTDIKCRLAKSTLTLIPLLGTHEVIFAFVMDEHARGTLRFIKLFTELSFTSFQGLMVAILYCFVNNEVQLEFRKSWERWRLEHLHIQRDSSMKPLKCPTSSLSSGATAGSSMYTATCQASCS

## CCCCCCCCCCCCCCCC(=O)N[C@@H](CCC(=O)NCCCC[C@H](NC(=O)[C@H](CCCCN)NC(=O)[C@H](CC(=O)O)NC(=O)[C@@H](NC(=O)[C@@H](NC(=O)[C@H](CCCCN)NC(=O)[C@@H](NC(=O)[C@H](CCC(N)=O)NC(=O)[C@@H](NC(=O)[C@H](CC(C)C)NC(=O)[C@H](Cc1c[nH]c2ccccc12)NC(=O)[C@H](CC(N)=O)NC(=O)[C@@H](NC(=O)[C@H](Cc1ccccc1)NC(=O)[C@H](CC(=O)O)NC(=O)[C@H](CCCNC(=N)N)NC(=O)[C@H](C)NC(=O)[C@H](C)NC(=O)[C@H](CC(C)C)NC(=O)[C@H](C)NC(=O)[C@H](CC(=O)O)NC(=O)[C@H](CC(C)C)NC(=O)[C@H](Cc1ccc(O)cc1)NC(=O)[C@@H](NC(=O)[C@H](CO)NC(=O)[C@H](CC(C)C)NC(=O)[C@H](CC(=O)O)NC(=O)[C@H](CO)NC(=O)[C@@H](NC(=O)[C@H](Cc1ccccc1)NC(=O)[C@@H](NC(=O)CNC(=O)[C@H](CCC(=O)O)NC(=O)CNC(=O)[C@@H](N)Cc1c[nH]cn1)[C@@H](C)O)[C@@H](C)O)[C@@H](C)O)[C@@H](C)CC)[C@@H](C)CC)[C@@H](C)O)[C@@H](C)CC)[C@@H](C)O)C(=O)O)C(=O)O [HU020K2FA] (HELM PEPTIDE1{H.G.E.G.T.F.T.S.D.L.S.T.Y.L.D.A.L.A.A.R.D.F.I.N.W.L.I.Q.T.K.I.T.D.K.K}|PEPTIDE2{[CCCCCCCCCCCCCCCC(=O)[*:2]].[gGlu]}$PEPTIDE1,PEPTIDE2,35:R3-2:R2$$$V2.0; N-terminus and C-terminus assumed)
GLP-1R; Example 5, relative to Exendin-4
  GLP-1 activity Compared to GLP-1 (Exendin-4): 23.6%
GLP-1R; GLP-1R/CHO cells, cAMP, relative to Exendin-4 (Example 2)
  Average (n=4) Relative to GLP-1 (Exendin-4) %: 63.4±29.4%
[1]; DIO mice
  Liver weight: 1.58±0.10
[1]; H&E, mean of grades 0 to 3, DIO mice
  Hepatic steatosis test (Score 0~3): 0.97±0.47
[2]
  Tmax: 8 h
  half-life: 6.6 h
C57BL/6 DIO mice
  Blood glucose: 192.0 ± 20.2 mg/dL
  High-density lipoprotein: 76.0 ± 4.0 mg/dL
  Low-density lipoprotein: 9.8 ± 1.5 mg/dL
  Toal cholesterol: 134.8 ± 10.7 mg/dL
  Triglyceride: 13.6 ± 4.8 mg/dL
